Where a name gives a salt, the structure may show the parent alone. Read-outs that look alike come from different tables or passages of the source.
Experiments:
female white mice = test: animal or person; conditions: Mus musculus, po, oral, mice
Protocol: (§1) Groups of five Carworth CF1 S female mice, 16-20 g each, were fasted 16-22 hours before use. The mice were put in opaque plastic "shoe-box" cages 15-30 min. before injection, and then treated orally with 4, 12, 36, 108 and 324 mg/kg of the compound to be tested as a 13 mg/ml solution in 1% aqueous distilled water solution of methylcellulose (Methocel®). Each dose was given in a standard volume of 0.45 ml. Observations were made at 0.5, 2 and 24 hours after dosing. ED50 values were calculated for each parameter including death (LD50). The ED50 and LD50 values are the doses at which 50% of the naimals would be expected to respond.
(§2) The mouse is placed on a stainless steel wire mesh screen (8 × 12 inches, 3 mesh per inch, 1/4 inch mesh openings) "shoe-box" lid (1 inch high) and is observed for normal activities, such as nose movements, head movements with apparent visual examination of the area, and/or walking around on the screen. Absence of or marked depression of these activities for 5 seconds constitutes loss of exploratory activity.
(§3) The mouse is picked up by the tail and placed on the screen with its head facing the observer. Bilateral eyelid closure of 50% or more two seconds after placement is considered ptosis.
(§4) The mouse is placed with its front paws on the edge of a stainless steel "shoe-box" cover, 1 inch high, covered with adhesive tape. Failure to remove both paws from the cover's edge within 5 seconds constitutes catatonia.
(§5) The observer gently strokes the abdominal musculature of the mouse with thumb and forefinger. Flaccidity (or rarely, tenseness) is recorded.
(§6) The mouse is gently swung by the tail toward a horizontal 12 gauge wire tautly stretched 25 cm above the bench. After the mouse grasps the wire with its forepaws, its posterior end is held directly below the wire. A normal mouse grasps the wire with its forepaws and immediately lifts its hind limbs to the wire. Failure to grasp the wire with the forepaws in both trials constitutes loss of the grip reflex; failure to lift the hind limbs to grasp the wire with at least one hind paw within 5 seconds constitutes loss of the lift reflex.
(§7) The mouse is placed on the bar 10-20 cm horizontally and 9 cm vertically from a Galton whistle adjusted for 13 kc (5 mm on the whistle scale) and is subjected to several short bursts of sound.
(§8) An effective tranquilizer should induce little or no tremor response. […] Tremors include fine or coarse and intermittent or continuous tremors.

in vivo = conditions: mouse, in vivo, po
Protocol: as §1, §2, §3, §4, §5, §6, §7, §8

[1] = system: phenylquinone-induced writhing; test: Phenylquinone writhing test (analgesia); format: in vivo, mouse (Carworth CF1 S female); conditions: Mus musculus, po
Source text: This mouse test is predictive of analgesic response in humans. [E. Siegmund, R. Cadmus and G. Lee, Proc. Soc.
ED50 values were obtained graphically from the data.

[2] = read-out: Catatonia ED50, Table 1
[3] = read-out: Exploratory Loss Visual ED50, Table 1
[4] = read-out: Muscle Tone ED50, Table 1
[5] = read-out: Reflexes Grip ED50, Table 1
[6] = read-out: Reflexes Lift ED50, Table 1
[7] = read-out: Reflexes Pinna ED50, Table 1
[8] = read-out: Catatonia ED50, Table III
[9] = read-out: Exploratory Loss Visual ED50, Table III
[10] = read-out: Muscle Tone ED50, Table III
[11] = read-out: Ptosis ED50, Table III
[12] = read-out: Reflexes Grip ED50, Table III
[13] = read-out: Reflexes Lift ED50, Table III
[14] = read-out: Reflexes Pinna ED50, Table III

| SMILES | ED50 (female white mice; [2]) [mg/kg] | ED50 (female white mice; [3]) [mg/kg] | ED50 (female white mice; [4]) [mg/kg] | ED50 (female white mice; read-out: Ptosis ED50, Table 1) [mg/kg] | ED50 (female white mice; [5]) [mg/kg] | ED50 (female white mice; [6]) [mg/kg] | ED50 (female white mice; [7]) [mg/kg] | ED50 (in vivo) [mg/kg] | LD50 at 24 h (in vivo) [mg/kg] | ED50 ([1]; Table 1, mice) [mg/kg] | ED50 (female white mice; [8]) [mg/kg] | ED50 (female white mice; [9]) [mg/kg] | ED50 (female white mice; [10]) [mg/kg] | ED50 (female white mice; [11]) [mg/kg] | ED50 (female white mice; [12]) [mg/kg] | ED50 (female white mice; [13]) [mg/kg] | ED50 (female white mice; [14]) [mg/kg] | ED50 ([1]; Table III, mice) [mg/kg] |
| --- | --- | --- | --- | --- | --- | --- | --- | --- | --- | --- | --- | --- | --- | --- | --- | --- | --- | --- |
| c1csc(CN2C[C@@H]3c4ccccc4[C@@H]4C[C@@]3(C2)c2ccccc24)c1 (relative stereo) [Example 54, 2-(2-Thienylmethyl)-2,3,8,12b-tetrahydro-1H-3a,8-methanodibenzo[3,4:6,7]cyclohepta[1,2-c]pyrrole] | 200 | 200 | 200 | 60 | > 324 | > 324 | 200 | > 324 | > 324 | 27 | – | – | – | – | – | – | – | – |
| FC(F)c1ccc2c(c1)[C@]13C[C@H]2c2ccccc2[C@H]1CN(CC1CCCC1)C3 (relative stereo) [Example 78, 5-Difluoromethyl-2-cyclopentylmethyl-2,3,8,12b-tetrahydro-1H-3a,8-methanodibenzo[3,4:6,7]cyclohepta[1,2c]pyrrole Hydrochloride] | – | – | – | – | – | – | – | – | > 324 | – | 20 | 7 | 7 | < 4 | > 324 | 20 | 7 | < 130 |
| Brc1ccc2c(c1)[C@]13C[C@H]2c2ccccc2[C@H]1CN(CC1CCCC1)C3 (relative stereo) [Example 70, 5-Bromo-2-cyclopentylmethyl-2,3,8,12b-tetrahydro-1H-3a,8-methanodibenzo[3,4:6,7]cyclohepta[1,2-c]pyrrole Hydrochloride] | – | – | – | – | – | – | – | – | > 324 | – | 12 | 20 | 12 | 7 | > 324 | 20 | 7 | < 130 |
| CNS(=O)(=O)c1ccc2c(c1)[C@]13C[C@H]2c2ccccc2[C@H]1CN(CC1CCCC1)C3 (relative stereo) [Example 88, 2-Cyclopentylmethyl-2,3,8,12b-tetrahydro-1H-3a,8-methanodibenzo[3,4:6,7]cyclohepta[1,2-c]pyrrole-5-N-methylsulfonamide Hydrochloride] | – | – | – | – | – | – | – | – | > 324 | – | 300 | 20 | 200 | 36 | > 324 | 200 | 100 | < 130 |
| c1ccc2c(c1)C1CC3(CN(CCC4CCCCC4)CC23)c2ccccc21 (centres unmarked) [Example 29, 2-(2-Cyclohexylethyl)-2,3,8,12b-tetrahydro-1H-3a,8-methanodibenzo[3,4:6,7]cyclohepta[1,2-c]pyrrole] | 21 | 24 | 24 | 17 | 290 | 78 | 50 | > 324 | > 324 | 28 | – | – | – | – | – | – | – | – |
| Fc1ccc2c(c1)[C@]13C[C@H]2c2ccccc2[C@H]1CN(CC1CCCC1)C3 (relative stereo) [Example 77, 5-Fluoro-2-cyclopentylmethyl-2,3,8,12b-tetrahydro-1H-3a,8-methanodibenzo[3,4:6,7]cyclohepta[1,2-c]pyrrole Hydrochloride] | – | – | – | – | – | – | – | – | > 324 | – | 20 | 7 | 20 | 7 | > 324 | 20 | 36 | < 130 |
| Nc1ccc2c(c1)[C@]13C[C@H]2c2ccccc2[C@H]1CN(CC1CCCC1)C3 (relative stereo) [Example 64, 5-Amino-2-cyclopentylmethyl-2,3,8,12b-tetrahydro-1H-3a, 8-methanodibenzo[3,4:6,7]cyclohepta[1,2-c]pyrrole Hydrochloride] | – | – | – | – | – | – | – | – | > 324 | – | < 4 | < 4 | < 4 | < 4 | 200 | 12 | 7 | 6.2 |
